Where two headings read alike, the source gives them in different places. Ends that are not written are not given here.
Assays:
[1] = tested on: HeLa cells; test: Cytotoxic activity of NK92 against HeLa cells with GSK3 inhibitor; format: cell-based, Human; conditions: data not shown
[2] = tested on: NKG2A genomic DNA sequence; test: T7E1 DNA cleavage assay / % INDELs after CRISPR/Cpf1-NLS delivery (NK and NK-92 cells); format: cell-based, Human; conditions: gene target NKG2A, CRISPR/Cpf1 1.33 μM, crRNA 2 μM, peptide 6 μM, 1 min in PBS, n=2
Text: (§1) The T7 endonuclease I (T7E1) can be used to detect on-target CRISPR/Cas genome editing events in cultured cells. As an overview, genomic DNA from target cells is amplified by PCR. The PCR products are then denatured and reannealed to allow heteroduplex formation between wild-type DNA and CRISPR/Cas-mutated DNA. T7E1, which recognizes and cleaves mismatched DNA, is used to digest the heteroduplexes. The resulting cleaved and full-length PCR products are visualized by gel electrophoresis.
The T7E1 assay was performed with the Edit-R™ Synthetic crRNA Positive Controls (Dharmacon #U-007000-05) and the T7 Endonuclease I (NEB, Cat #M0302S). After the delivery of the CRISPR/Cas complex, cells were lysed in 100 μL of Phusion™ High-Fidelity DNA polymerase (NEB #M0530S) laboratory with additives. The cells were incubated for 15-30 minutes at 56° C., followed by deactivation for 5 minutes at 96° C. The plate was briefly centrifuged to collect the liquid at bottom of the wells. 50-μL PCR samples were set up for each sample to be analyzed. The PCR samples were heated to 95° C. for 10 minutes and then slowly (>15 minutes) cooled to room temperature. PCR product (-5 μL) was then separated on an agarose gel (2%) to confirm amplification. 15 μL of each reaction was incubated with T7E1 nuclease for 25 minutes at 37° C. […]

[3] = tested on: B2M genomic DNA sequence; test: T7E1 DNA cleavage assay / % INDELs after CRISPR/Cas9-NLS or CRISPR/Cpf1-NLS delivery (HeLa, THP-1, NK, T cells); format: cell-based, Human; conditions: CRISPR/Cpf1 1.33 μM, crRNA 2 μM; THP-1 and NK cells; different concentrations and exposure times
Text: as §1
The T7E1 assay was performed with the Edit-R™ Synthetic crRNA Positive Controls (Dharmacon #U-007000-05) and the T7 Endonuclease I (NEB, Cat #M0302S). After the delivery of the CRISPR/Cas complex, cells were lysed in 100 μL of Phusion™ High-Fidelity DNA polymerase (NEB #M0530S) laboratory with additives. The cells were incubated for 15-30 minutes at 56° C., followed by deactivation for 5 minutes at 96° C. The plate was briefly centrifuged to collect the liquid at bottom of the wells. 50-μL PCR samples were set up for each sample to be analyzed. The PCR samples were heated to 95° C. for 10 minutes and then slowly (>15 minutes) cooled to room temperature. PCR product (-5 μL) was then separated on an agarose gel (2%) to confirm amplification. 15 μL of each reaction was incubated with T7E1 nuclease for 25 minutes at 37° C. Immediately, the entire reaction volume was run with the appropriate gel loading buffer on an agarose gel (2%).
Cas9-NLS recombinant protein was prepared as described in Example 13.1. Cpf1-NLS recombinant protein was prepared as described in Example G.2. A mix composed of a Cas9-NLS recombinant protein with its respective crRNAltracrRNA, or a Cpf1-NLS recombinant protein with its respective single guide crRNA(s) (see below) targeting a nucleotide sequence of the B2M gene, was co-incubated with different concentrations of the peptides FSD10, FSD18, FSD19, FSD21, FSD22, or FSD23 and incubated with HeLa, THP-1 or NK cells for 90 sec in PBS, or for 1 h in medium without serum, or for 48 h in medium with serum, using the transduction protocols as generally described in Example 3.1a. Cells were then washed with PBS and harvested to proceed with the T7E1 protocol assay as described in Example 13.4.
FIGS. 52A-52D show the results of the cleavage of the targeted genomic B2M DNA sequence after the delivery of CRISPR/Cpf1 (1.33 μM) with crRNA−1 or crRNA−2 (2 μM) in the absence (“-ctrl”) or in the presence of the peptides FSD10, FSD18, FSD19, FSD21 or FSD23 used at different concentrations, exposure times, and in different types of cells: THP-1 (FIG. 52A), and NK (FIGS. 52B, 52C, 52D), after separation by agarose gel electrophoresis. […] Gel lanes were loaded in duplicate. Thin dashed arrows indicate the bands corresponding to the target gene, and thick solid arrows indicate the bands corresponding to the cleavage products of this target gene, which indicate the successful transduction of fully functional CRISPR genome editing complexes. We used a Bio-Rad ImageLab™ software (Version 5.2.1, Bio-Rad, http://www.bio-rad.com/en-ca/product/image-lab-software?tab=Download) to quantify the relative signal intensities of each of the different bands directly on the gels. The sum of all the bands in a given lane corresponds to 100% of the signal, and the numerical value in italics at the bottom of each lane is the sum of the relative signals (%) of only the two cleavage product bands (thick solid arrows). No cleavage product bands were found in the negative controls (“-ctrl”, i.e., to cells that were exposed to CRISPR system in the absence of FSD peptide).
Cas9-NLS recombinant protein was prepared as described in Example 13.1. Cpf1-NLS recombinant protein was prepared as described in Example G.2. […]

[4] = tested on: HeLa cells; test: Transduction of anti-NUP98 antibody, immuno-labelling and fluorescence microscopy; format: cell-based, Human; conditions: FSD19 7.5 μM; 4 hours
Description: Anti-NUP98 antibody […] was co-incubated with 7.5 μM of FSD19 and exposed to HeLa cells for 4 hours. Cells are washed, fixed with paraformaldehyde 4%, permeabilized with 0.1% Triton™ and labeled with a fluorescently labeled (Alexa™ Fluor 488) goat anti-rat antibody. Antibody bound to the perinuclear membrane and cell nuclei were visualized by fluorescence microscopy at 20× (upper panels) and 40× (lower panels).

[5] = in vitro; conditions: human, HeLa cells
[6] = in vitro; conditions: human, THP-1 cells
Description: (§5) One day before the transduction assay was performed, cells in exponential growth phase were harvested and plated in a 96-well plate (20,000 cells per well). The cells were incubated overnight in appropriate growth media containing FBS (see Example 1). The next day, in separate sterile 1.5 mL tubes, cargo protein at the indicated concentration was pre-mixed (pre-incubated) for 1 or 10 min (depending on the protocol) at 37° C. with the peptide(s) to be tested shuttle agents (0.5 to 5 μM) in 50 μL of fresh medium without serum (unless otherwise specified). The media in wells was removed and the cells were washed three times with freshly prepared phosphate buffered saline (PBS) previously warmed at 37° C. The cells were incubated with the cargo protein/shuttle agent mixture at 37° C. for the indicated time (e.g., 1, 5 or 60 min). After the incubation, the cells were quickly washed three times with freshly prepared PBS and/or heparin (0.5 mg/mL) previously warmed at 37° C. The washes with heparin were required for human THP-1 blood cells to avoid undesired cell membrane-bound protein background in subsequent analyses (microscopy and flow cytometry). The cells were finally incubated in 50 μL of fresh medium with serum at 37° C. before analysis.
(§6) One day before the transduction assay was performed, suspension cells in exponential growth phase were harvested and plated in a 96-well plate (20,000 cells per well). The cells were incubated overnight in appropriate growth media containing serum (see Example 1). The next day, in separate sterile 1.5-mL tubes, peptides were diluted in sterile distilled water at room temperature (if the cargo is or comprised a nucleic acid, nuclease-free water was used). Cargo protein(s) were then added to the peptides and, if necessary, sterile PBS or cell culture medium (serum-free) was added to obtain the desired concentrations of shuttle agent and cargo in a sufficient final volume to resuspend the cells (e.g., 10 to 100 μL per well in a 96-well plate). The shuttle agent/peptide was then immediately used for experiments. At least three controls were included for each experiment, including: (1) peptide alone (e.g., at highest concentration tested); (2) cargo alone; and (3) without any cargo or shuttle agent. The cells were centrifuged for 2 minutes at 400g, the medium was then removed and the cells were resuspended in PBS previously warmed at 37° C. The cells were centrifuged again 2 minutes at 400g, the PBS removed, and the cells were resuspended with the cargo protein/peptide mixture at 37° C. for the desired length of time. After that, 200 μL of complete medium was added directly on the cells. Cells were centrifuged for 2 minutes at 400g and the medium was removed. The pellet was resuspended and washed in 200 μL of PBS previously warmed at 37° C. After another centrifugation, the PBS was removed and the cells were resuspended in 50 μL of trypsin-EDTA solution for 2 min. 200 of complete medium was directly added and cells were centrifuged for 2 minutes at 400g. The medium was removed and the cells were resuspended in 200 μL of complete medium.
(§7) The cells incubated in 50 μL of fresh medium were directly observed by microscopy (Bright-field and fluorescence) at different power fields (4× to 40×). The cells were observed using a CoolSNAP-PRO™ camera (Series A02D874021) and images were acquired using the Image-Proplus™ software.
(§8) The fluorescence of GFP was quantified using flow cytometry (Accuri C6, Becton, Dickinson and Company (BD)).

[7] = in vitro; conditions: human, HeLa cells; remark: listed apart in the source
[8] = tested on: HeLa cells; test: Plasmid DNA (pEGFP-C1) transfection by peptides (% cells with GFP signal, cell viability); conditions: DNA transfection in HeLa cells using peptides; pEGFP-C1 plasmid
[9] = tested on: HeLa cells; test: GFP-NLS protein transduction assay (flow cytometry: Pos cells %, viability %, relative fluorescence intensity; microscopy); conditions: for FIG. 13B Cell viability (%) (±St Dev.; n = 3): Table 5.1; for FIG. 13B Cell viability (%) (±St Dev.; n = 3) / FIG. 21B Cell viability (%) (±St. Dev.; n = 3): GFP-NLS 5 μM, HeLa, 1 hour; for FIG. 21B Cell viability (%) (±St. Dev.; n = 3): Table 8.1
[10] = tested on: THP-1 cells; test: as above; conditions: for Mean % cells with GFP signal (±St. Dev.; n = 3): THP-1 cells, GFP-NLS 10 μM
Description: as §5, §6, §7, §8

[11] = tested on: primary myoblasts; test: Calcein endosomal escape assay, quantification by flow cytometry (mean counts, Mean Factor); format: cell-based, Human; conditions: myoblast cells
Text: (§2) Calcein is a membrane-impermeable fluorescent molecule that is readily internalized by cells when administered to the extracellular medium. Its fluorescence is […] and calcein self-quenches at higher concentrations. Once internalized, calcein becomes sequestered at high concentrations in cell endosomes and can be visualized by fluorescence microscopy as a punctate pattern. Following endosomal leakage, calcein is released to the cell cytoplasm and this release can be visualized by fluorescence microscopy as a diffuse pattern.
(§3) The cells were allowed to attach by incubating overnight in appropriate growth media, as described in Example 1. The next day, the media in wells was removed and replaced with 50 μL of fresh media without serum containing 62.5 μg/mL (100 μM) of calcein, except for HEK293A (250 μg/mL, 400 μM). […]
(§4) Untreated calcein-loaded cells were used as a control to distinguish cells having a baseline of fluorescence due to endosomally-trapped calcein from cells having increased fluorescence due to release of calcein from endosomes. Fluorescence signal means (“mean counts”) were analyzed for endosomal escape quantification. In some cases, the “Mean Factor” was calculated, which corresponds to the fold-increase of the mean counts relative to control (untreated calcein-loaded cells). […] The cellular mortality was monitored with the percentage of cells in the total events scanned. […]

[12] = tested on: HeLa cells; format: cell-based, Human; conditions: 1 hour; for Cell viability (%): GFP (5 μM); for GFP intracellular delivery (fluorescence microscopy): GFP 5 μM, 5 μM of each peptide, data not shown
[13] = tested on: HeLa cells; test: TAT-GFP protein transduction assay (flow cytometry, cell viability, fluorescence microscopy); format: cell-based, Human; conditions: TAT-GFP 5 μM, 1 hour
Description: Briefly, TAT-GFP recombinant protein (5 μM) was co-incubated with different concentrations of CM18-TAT-Cys (0, 0.5, 1, 3, or 5 μM) and then exposed to HeLa cells for 1 hour.

[14] = tested on: HeLa cells; test: FITC-labeled anti-tubulin antibody transduction assay (flow cytometry, cell viability, microscopy); conditions: FITC-labeled anti-tubulin antibody 0.5 μM, HeLa, 1 hour; shuttle 3.5 μM
Description: The delivery and microscopy protocols are described in Example 3.
HeLa cells were cultured and tested in the protein transduction assay described in Example 3.1. […] The cells were subjected to flow cytometry analysis as described in Example 3.3.

[15] = tested on: HeLa cells; format: cell-based; conditions: peptide 5 μM; fold-increase relative to untreated calcein-loaded cells
Text: as §2, §3, §4

Cn1cc(C2=C(c3ccc(Cl)cc3Cl)C(=O)NC2=O)c2ccccc21 [SB216763]
effect on cytotoxic activity of NK92 [1]: enhances the cytotoxic activity of NK92 against HeLa cells

FSD100 (HHHHHHFLKIWSRLIKIWTQGRRKGAQAAFRHHHHHH)
% INDELs [2]: 16%

FSD101 (HHHHHHRFAAQAGKRRGQTWIKILRSWIKLF)
% INDELs [2]: 17%

HHHHHHLLKLWSRLLKTWTQGRRLKAKSAQASTRQAHHHHHH [FSD19]
delivery of CRISPR/Cpf1 complex, cleavage of genomic B2M (in words) [3]: successful delivery of the CRISPR genome-editing complexes to the nucleus | functionality of transduced anti-NUP98 antibody (microscopy) [4]: anti-NUP98 antibody retained its functionality inside the cell following its transduction | viability ([5]; Cell viability (%) (±St Dev.; n = 3)): 80.6 ± 5.36% | viability at 15 s, 5 µM [6]: 60.5 ± 5.71% | viability at 0.5 min, 2 µM [6]: 68.7 ± 4.29% | viability [7]: 97.4 ± 2.07% | Mean % cells with GFP signal (±St. Dev.; n = 3) [8]: 0.24 ± 0.00% | Mean % cells with GFP signal (±St. Dev.; n = 3) ([9]; Table B2, HeLa cells, GFP-NLS cargo): 55.17 ± 4.62% | Mean % cells with GFP signal (±St. Dev.; n = 3) ([10]; peptide 2 μM, incubation 0.5 min): 55.4 ± 4.63% | Mean % cells with GFP signal (±St. Dev.; n = 3) ([10]; peptide 5 μM, incubation 0.25 min): 61.5 ± 6.07%

KWKLFKKIGAVLKVLTTGYGRKKRRQRRRC [CM18-TAT-Cys]
peptide concentrations associated with an increase in cell toxicity [11]: above 10 μM | Cell viability (%) ([12]; shuttle 0.5 μM): 88.4 ± 6% | Cell viability (%) ([12]; shuttle 1 μM): 90 ± 6% | Cell viability (%) ([12]; shuttle 3 μM): 91 ± 5% | Cell viability (%) ([12]; shuttle 5 μM): 90 ± 7% | FIG. 11B Cell viability (%) (±St. Dev.; n = 3) ([13]; shuttle 0.5 μM): 84.36 ± 5% | FIG. 11B Cell viability (%) (±St. Dev.; n = 3) ([13]; shuttle 1 μM): 89.26 ± 5.26% | FIG. 11B Cell viability (%) (±St. Dev.; n = 3) ([13]; shuttle 3 μM): 93.18 ± 6.28% | FIG. 11B Cell viability (%) (±St. Dev.; n = 3) ([13]; shuttle 5 μM): 95.14 ± 5.28% | FIG. 19B Cell viability (%) (± St. Dev.; n = 3) [14]: 95 ± 4.06% | viability at 1 h, 1 µM [5]: 94 ± 4.28% | viability [7]: 96.3 ± 1.86% | FIG. 13B Cell viability (%) (±St Dev.; n = 3) ([9]; shuttle 0.5 μM): 87.6 ± 4% | FIG. 13B Cell viability (%) (±St Dev.; n = 3) ([9]; shuttle 1 μM): 93 ± 8% | FIG. 13B Cell viability (%) (±St Dev.; n = 3) ([9]; shuttle 5 μM): 93 ± 4% | FIG. 21B Cell viability (%) (±St. Dev.; n = 3) ([9]; shuttle 3 μM): 89 ± 5.37% | FIG. 21B Cell viability (%) (±St. Dev.; n = 3) ([9]; shuttle 5 μM): 81 ± 6.34% | FIG. 17B Cell viability (%) (±St Dev.; n = 3) ([10]; Table 5.5, GFP-NLS 5 μM, THP-1, 5 minutes, shuttle 1 μM): 85 ± 6%

RQIKIWFQNRRMKWKKC [Penetratin-Cys, reference compound]
Mean Factor [15]: 1.1 | GFP intracellular delivery (fluorescence microscopy) [12]: not successfully delivered intracellularly

YGRKKRRQRRRC [TAT-Cys, CPD single-domain peptide with C-terminal Cys, reference compound]
Mean Factor [15]: 1.3 | GFP intracellular delivery (fluorescence microscopy) [12]: not successfully delivered intracellularly

Reference: US12286632B2, “Rationally-designed synthetic peptide shuttle agents for delivering polypeptide cargos from an extracellular space to the cytosol and/or nucleus of a target eukaryotic cell, uses thereof, methods and kits relating to same” (Feldan Bio Inc., priority 2016, dated 2025)
